# Legend:
# Oryctolagus cuniculus = species on record: Oryctolagus cuniculus; test: cells; type: functional, organism-based, Stomach
# Description: In vitro inhibition of 14C amino-pyrine uptake was determined in isolated rabbit gastric glands after dbcAMP stimulation
# Rattus norvegicus = species on record: Rattus norvegicus; test: animal or person; conditions: Stomach, iv, read-out: Inhibition
# Canis familiaris = species on record: Canis familiaris; test: animal or person; conditions: Canis lupus familiaris, Stomach, intraduodenal, read-out: Inhibition
# animal or person = conditions: Canis lupus familiaris, Stomach, iv, read-out: Inhibition
# Description for physchem: pKa value of the compound
SMILES,IC50 (Oryctolagus cuniculus; Stomach),IC50 (Oryctolagus cuniculus),pKa (physchem),inhibition in vivo at 0.5 mg/kg (Rattus norvegicus),inhibition in vivo at 1 mg/kg (Canis familiaris),inhibition in vivo at 0.3 mg/kg (animal or person)
Cc1sc(C)c2[nH]c([S+]([O-])Cc3ccccn3)nc12 (stereo not drawn),15 µM,,,,,
COc1ccnc(C[S+]([O-])c2nc3cscc3[nH]2)c1OC(F)(F)C(F)F (stereo not drawn),3 µM,,,51%,14%,65%
[O-][S+](Cc1cc(OC(F)F)ccn1)c1nc2cscc2[nH]1 (stereo not drawn),,1000 µM,,,,
CCOc1ccnc(C[S+]([O-])c2nc3cscc3[nH]2)c1 (stereo not drawn),3 µM,,3.92,,,
Cc1cnc(C[S+]([O-])c2nc3cscc3[nH]2)c(C)c1 (stereo not drawn),50 µM,,,,,91%
[O-][S+](Cc1cc(Oc2cccc(C(F)(F)F)c2)ccn1)c1nc2cscc2[nH]1 (stereo not drawn),2.2 µM,,,64%,66%,
COC(=O)c1sc2[nH]c([S+]([O-])Cc3cc(OC)ccn3)nc2c1C(=O)OC (stereo not drawn),1000 µM,,,,,
COc1ccnc(C[S+]([O-])c2nc3cscc3[nH]2)c1OC (stereo not drawn),3.6 µM,,,54%,,82%
Cc1sc(C)c2[nH]c([S+]([O-])Cc3nccc(OC(C)C)c3Cl)nc12 (stereo not drawn),2.5 µM,,,32%,,
[O-][S+](Cc1ncccc1F)c1nc2cscc2[nH]1 (stereo not drawn),1000 µM,,,,,
COC(=O)c1sc2[nH]c([S+]([O-])Cc3ccccn3)nc2c1C(=O)OC (stereo not drawn),1000 µM,,,,,
COc1ccnc(C[S+]([O-])c2nc3ccsc3[nH]2)c1 (stereo not drawn),1000 µM,,,,,
CC(=O)c1scc2[nH]c([S+]([O-])Cc3cc(OCC(F)(F)F)ccn3)nc12 (stereo not drawn),32 µM,,,,,
[O-][S+](Cc1nccc(OCC(F)(F)C(F)(F)F)c1Cl)c1nc2cscc2[nH]1 (stereo not drawn),10 µM,,,,,
Cc1ccc(C[S+]([O-])c2nc3c(C)sc(C)c3[nH]2)nc1 (stereo not drawn),6 µM,,,58%,,46%
[O-][S+](Cc1ccc(Cl)cn1)c1nc2cscc2[nH]1 (stereo not drawn),1000 µM,,,26%,,
Cc1sc(C)c2[nH]c([S+]([O-])Cc3cc(OCC(F)(F)C(F)(F)C(F)(F)F)ccn3)nc12 (stereo not drawn),26 µM,,,,,
COc1ccnc(C[S+]([O-])c2nc3cscc3[nH]2)c1C (stereo not drawn),1000 µM,,,,,
[O-][S+](Cc1cc(OCC(F)(F)C(F)(F)F)c(Cl)cn1)c1nc2cscc2[nH]1 (stereo not drawn),,,,38%,,
[O-][S+](Cc1cc(Oc2ccc(Cl)c(Cl)c2)ccn1)c1nc2cscc2[nH]1 (stereo not drawn),2.3 µM,,,49%,,62%

SMILES,IC50 (Oryctolagus cuniculus; Stomach),IC50 (Oryctolagus cuniculus),pKa (physchem),inhibition in vivo at 0.5 mg/kg (Rattus norvegicus),inhibition in vivo at 1 mg/kg (Canis familiaris),inhibition in vivo at 0.3 mg/kg (animal or person)
COc1ccnc(C[S+]([O-])c2nc3c(C)sc(C)c3[nH]2)c1 (stereo not drawn),12 µM,,,,,66%
COCCOc1ccnc(C[S+]([O-])c2nc3cscc3[nH]2)c1Cl (stereo not drawn),,,,63%,,
COc1cc(C[S+]([O-])c2nc3cscc3[nH]2)ncc1Br (stereo not drawn),19 µM,,,62%,53%,59%
[O-][S+](Cc1ccccn1)c1nc2c(-c3ccccc3)scc2[nH]1 (stereo not drawn),31 µM,,,,,
Cc1cccnc1C[S+]([O-])c1nc2cscc2[nH]1 (stereo not drawn),25 µM,,,,,
COc1c(C)cnc(C[S+]([O-])c2nc3cscc3[nH]2)c1Cl (stereo not drawn),,,,43%,,52%
COc1ccc(-c2scc3[nH]c([S+]([O-])Cc4ncc(C)c(OC)c4C)nc23)cc1 (stereo not drawn),3 µM,,,24%,,
[O-][S+](Cc1cc(Oc2ccc(F)cc2)ccn1)c1nc2cscc2[nH]1 (stereo not drawn),4 µM,,,84%,97%,85%
COc1c(C)cnc(C[S+]([O-])c2nc3c(-c4ccccc4)scc3[nH]2)c1C (stereo not drawn),4.2 µM,,,46%,39%,
[O-][S+](Cc1ncccc1OC(F)F)c1nc2cscc2[nH]1 (stereo not drawn),1000 µM,,,,,
[O-][S+](Cc1nccc(OCC(F)(F)F)c1Cl)c1nc2cscc2[nH]1 (stereo not drawn),1000 µM,,,,,
COc1ccnc(C[S+]([O-])c2nc3cscc3[nH]2)c1 (stereo not drawn),19 µM,,4.16,82%,,84%
Cc1cccc(C[S+]([O-])c2nc3cscc3[nH]2)n1 (stereo not drawn),300 µM,,,,,
[O-][S+](Cc1nccc(Oc2ccccc2)c1Cl)c1nc2cscc2[nH]1 (stereo not drawn),61 µM,,,0%,,
[O-][S+](Cc1ncccc1OCC(F)(F)F)c1nc2cscc2[nH]1 (stereo not drawn),120 µM,,,23%,,
[O-][S+](Cc1cc(OC(C(F)(F)F)C(F)(F)F)ccn1)c1nc2cscc2[nH]1 (stereo not drawn),195 µM,,3.5,39%,,
COc1c(C)cnc(C[S+]([O-])c2nc3cscc3[nH]2)c1C (stereo not drawn),1000 µM,,,,,
COc1ccc(C[S+]([O-])c2nc3cscc3[nH]2)nc1 (stereo not drawn),1000 µM,,,38%,,
CCCOc1ccnc(C[S+]([O-])c2nc3cscc3[nH]2)c1Cl (stereo not drawn),3 µM,,,,,

# The remaining compounds from weak to strong by IC50 (Oryctolagus cuniculus; Stomach), led by results:
IC50 (Oryctolagus cuniculus; Stomach),IC50 (Oryctolagus cuniculus),pKa (physchem),SMILES,inhibition in vivo at 0.5 mg/kg (Rattus norvegicus),inhibition in vivo at 1 mg/kg (Canis familiaris),inhibition in vivo at 0.3 mg/kg (animal or person)
2 µM,,,[O-][S+](Cc1cc(OCC(F)(F)C(F)F)ccn1)c1nc2cscc2[nH]1 (stereo not drawn),89%,91%,66%
2 µM,,,CCOc1ccnc(C[S+]([O-])c2nc3cscc3[nH]2)c1Cl (stereo not drawn),,,
2 µM,,,[O-][S+](Cc1cc(Oc2ccc(Cl)cc2)ccn1)c1nc2cscc2[nH]1 (stereo not drawn),66%,,76%
1.1 µM,,,[O-][S+](Cc1cc(OCc2cc(Cl)cc(Cl)c2)ccn1)c1nc2cscc2[nH]1 (stereo not drawn),64%,,
1.1 µM,,,[O-][S+](Cc1cc(OCc2cc(C(F)(F)F)cc(C(F)(F)F)c2)ccn1)c1nc2cscc2[nH]1 (stereo not drawn),43%,87%,
1 µM,,,[O-][S+](Cc1cc(OCC(F)(F)C(F)(F)F)ccn1)c1nc2cscc2[nH]1 (stereo not drawn),81%,,
1 µM,,,[O-][S+](Cc1cc(OCc2ccc(F)cc2F)ccn1)c1nc2cscc2[nH]1 (stereo not drawn),76%,,
1 µM,,,Cc1cnc(C[S+]([O-])c2nc3cscc3[nH]2)cc1OCC(F)(F)F (stereo not drawn),69%,92%,83%
1 µM,,,CCCCOc1ccnc(C[S+]([O-])c2nc3cscc3[nH]2)c1 (stereo not drawn),81%,,87%
1 µM,,,Cc1sc(C)c2[nH]c([S+]([O-])Cc3cc(OCC(F)(F)C(F)(F)F)ccn3)nc12 (stereo not drawn),,,
1 µM,,,[O-][S+](Cc1ncccc1Cl)c1nc2cscc2[nH]1 (stereo not drawn),,,
1 µM,,,CC(C)Oc1ccnc(C[S+]([O-])c2nc3cscc3[nH]2)c1Cl (stereo not drawn),80%,,87%
0.8 µM,,,[O-][S+](Cc1nccc(OCC(F)(F)F)c1OCC(F)(F)F)c1nc2cscc2[nH]1 (stereo not drawn),35%,45%,13%
0.7 µM,,,[O-][S+](Cc1cc(OCc2cc(F)cc(F)c2)ccn1)c1nc2cscc2[nH]1 (stereo not drawn),70%,96%,
0.5 µM,,,COc1c(OCc2ccc(C(F)(F)F)cc2)ccnc1C[S+]([O-])c1nc2cscc2[nH]1 (stereo not drawn),51%,91%,
0.5 µM,,,Cc1c(OCC(F)(F)C(F)(F)F)ccnc1C[S+]([O-])c1nc2cscc2[nH]1 (stereo not drawn),72%,45%,64%
0.5 µM,,,COc1c(OCc2cc(C(F)(F)F)cc(C(F)(F)F)c2)ccnc1C[S+]([O-])c1nc2cscc2[nH]1 (stereo not drawn),65%,,
0.5 µM,,,[O-][S+](Cc1cc(OCc2ccccc2)ccn1)c1nc2cscc2[nH]1 (stereo not drawn),,,
0.4 µM,,,[O-][S+](Cc1cc(OCc2ccc(Cl)cc2)ccn1)c1nc2cscc2[nH]1 (stereo not drawn),78%,,
0.3 µM,,,[O-][S+](Cc1cc(Oc2ccc(F)cc2F)ccn1)c1nc2cscc2[nH]1 (stereo not drawn),56%,,74%
0.3 µM,,,COc1c(OCc2ccc(F)cc2)ccnc1C[S+]([O-])c1nc2cscc2[nH]1 (stereo not drawn),78%,76%,73%

# — ChEMBL document CHEMBL1125575, “2-[(2-pyridylmethyl)sulfinyl]-1H-thieno[3,4-d]imidazoles. A novel class of gastric H+/K(+)-ATPase inhibitors” (J Med Chem, 1992)
